Measurements taken from patent US20120258938A1, “Enzymatic Production or Chemical Synthesis and Uses for 5,7-Dienes and UVB Conversion Products Thereof” (priority 2008, published 2012).
Blank lines part the entries; values can stand above or below the compound they belong to.

Key:
Human dermal fibroblasts = experiment: TGF-b1 induced collagen protein production by dermal fibroblasts; format: cell-based; conditions: collagenase sensitive protein; for Collagen CPM/Well (mean ± SEM) × 10^−5 FB: hrTGF-b1 5 ng/ml, secosteroids at 10^−10M, 3[H]-proline
Procedure: Human dermal fibroblasts grown from explant skin cultures at less than 10 subpassages were plated at 5×10^4 cells per well in 24 well Costar tissue culture plates and were grown to confluency. Complete MEM was then changed to serum free Complete MEM without non-essential amino acids. After 24 hours, culture medium was changed (450 μl/well) to the same and secosteroids listed in Table 14 were added in 10 μl absolute alcohol (ETOH) to a final concentration of 10^−9 and M, 3 replicate wells each. Vehicle control wells (n=6) contained 10 μl (ETOH). After 2 hour pre-incubation, hr TGF-b1 (R and D systems) was added to each well except ETOH wells at a final concentration of 5 ng/ml. After 48 hours of culture, plate wells were paused with 1μ Cl ^3[H]-proline. After 24 hours, culture supernatants were harvested and collagenase sensitive protein was determined as previously described (44).

[1] = tested on: human dermal fibroblast line; experiment: TGF-b1 induced hyaluronan synthesis by dermal fibroblasts; format: cell-based; conditions: hrTGF-b1 5 ng/ml, secosteroids at 10^−10M
Description: There were found no significant differences in fibroblast numbers per well and no significant differences in trypan blue exclusion between control wells vs those with secosteroids range 95-100% (data not shown).

[2] = tested on: SK Mel 188 human melanoma cells; experiment: Soft agar colony formation, SKMEL 188 melanoma; format: cell-based; conditions: for colony formation in soft agar versus vehicle control: SKMEL 188, 10 nM
Procedure: Growth and survival of prostate cancer cells (PC3) and melanoma cells SKMEL 188 and AbC1 was determined by following their ability to form colonies in soft agar. Cells growing in monolayer culture were trypsinized and resuspended (1,000 cells/well) in 0.25 ml medium containing 0.4% agarose and 5% charcoal stripped serum (HyClone).
Cell suspensions were added to 0.8% agar layer in 24 well plates. […] Each condition was tested in quadruplicate. An ethanol solvent control (amount of ethanol equivalent to test) as well as a media-only control was included in the assay. Cells were allowed to grow at 37° with 5% CO2 over two weeks with secosteroids in fresh media (100 μL) being added after every 72 h. Soft agar colonies were scored and stained with 0.5 mg/ml MTT reagent (Promega), 500 μL/well after two weeks. Colonies were then counted under the microscope and number of units was calculated as number of colonies formed divided by the number of cells seeded×100.

cytochrome P450scc = target: T1, cytochrome P450scc (Bos taurus, UniProt P00189); experiment: Metabolism by cytochrome P450scc in cyclodextrin
T1 sequence (P00189 40-520): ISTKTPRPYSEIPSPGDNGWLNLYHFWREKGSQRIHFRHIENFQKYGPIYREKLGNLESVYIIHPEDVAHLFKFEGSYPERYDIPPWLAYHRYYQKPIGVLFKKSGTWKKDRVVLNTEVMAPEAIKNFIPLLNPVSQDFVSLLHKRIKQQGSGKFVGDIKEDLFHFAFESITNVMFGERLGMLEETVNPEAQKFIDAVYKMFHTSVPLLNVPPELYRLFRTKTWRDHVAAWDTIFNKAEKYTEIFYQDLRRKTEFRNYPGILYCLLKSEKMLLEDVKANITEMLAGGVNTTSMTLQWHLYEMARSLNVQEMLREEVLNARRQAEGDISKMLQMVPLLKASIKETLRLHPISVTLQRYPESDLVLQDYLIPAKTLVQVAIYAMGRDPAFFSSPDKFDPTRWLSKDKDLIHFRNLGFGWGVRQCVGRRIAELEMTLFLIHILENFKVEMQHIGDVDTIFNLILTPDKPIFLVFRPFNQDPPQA
Procedure: Adrenodoxin was expressed in Escherichia coli and purified as described before (41). […] Metabolites were analysed using a Perkin Elmer HPLC equipped with a C18 column (Brownlee Aquapore, 22 cm×4.6 mm, particle size 7 μm).

HaCaT keratinocytes = experiment: [3H]-thymidine DNA synthesis in HaCaT keratinocytes; format: cell-based, human; conditions: HaCaT
Procedure: HaCaT keratinocytes were plated in 96-well plates at the density of 10,000 cells/well in DMEM (Cellgro, Herndon Va.) containing 5% charcoal treated fetal bovine serum (Hyclone, Logan, Utah), 1% antibiotic solution (PSA, Sigma, St. Louis, […].). Next day, media were changed and vehicle (ethanol) or secosteroids added. Cells were incubated with compounds for 48 hours. [^3H]-thymidine (Amersham Biosciences, Picataway, N.Y.) was added to the final concentration of 1 μCi/mL medium for last 12 hours of incubation. Media were then discarded, cells detached with trypsin and harvested on a glass fiber filter (Packard, Meriden, Calif.). Radioactivity was measured with a beta counter (Direct Beta-Counter Matrix 9600; Packard).
To measure DNA synthesis, keratinocytes, melanoma or prostate cancer cells were plated in 96-well plates. After overnight incubation tested compounds were added to the medium to achieve final concentrations 10^−7-10^−10 [M]. 100 μl of medium per well containing vitamin D3 compound was added to the cells. After 36 hours of incubation [3H]-thymidine (specific activity 88.0 Ci/mmol; Amersham Biosciences, Picataway, N.Y., USA) was added at 1 μCi/mL medium. After 12 hours, media were discarded, cells detached with trypsin and harvested on a glass fiber filter (Packard, Meriden, Calif., USA). 3H-radioactivity was measured with a beta counter (Direct Beta-Counter Matrix 9600; Packard).
HaCaT keratinocytes were plated out in 24-well plates, 50,000 cells/well. […] After 4 h media were discarded, cells washed with cold phosphate-buffered saline and incubated in 10% trichloroacetic acid for 30 min. Cells were washed again with phosphate-buffered saline, 100 μl 1.0 M NaOH was added to each well and plates incubated for 30 min at 30° C. The supernatant was collected and the ^3H-radioactivity measured by scintillation counting using a Direct Beta-Counter Matrix 9600 (Packard). The [^3H]-thymidine incorporation into DNA was measured separately for each well and the results entered into the calculation as the mean of 6 wells for each condition in a series of six experiments (n=36). Data were analyzed with GraphPad Prizm Version 4.0 (GraphPad Software Inc., San Diego, Calif., USA) using t tests. Differences were considered significant when p<0.05.

Compound: 1,25 (OH)2 D3
Collagen CPM/Well (mean ± SEM) × 10^−5 FB (Human dermal fibroblasts): 310 ± 100 CPM/Well × 10^−5 FB | Hyaluronan CPM/Well (mean ± SEM) × 10^−5 FB [1]: 297 ± 18 CPM/Well × 10^−5 FB

Compound: C=C1C(=CC=C2CCCC3(C)C2CCC3C(C)(O)CCC(O)C(C)C)CC(O)CC1O (stereo not drawn) [1,20,24(OH)2D3, (5Z,7E)-9,10-secocholesta-5,7,10(19)-triene-1α,3β,20,24-tetrol]
colony formation in soft agar versus vehicle control [2]: greatly inhibited colony formation

Compound: C=C1C(=CC=C2CCCC3(C)C2CCC3C(C)(O)CCCC(C)(C)O)CC(O)CC1O (stereo not shown) [1,20,25(OH)2D3, 1,20,25-trihydroxycholecalciferol]
colony formation in soft agar versus vehicle control [2]: greatly inhibited colony formation

Km (cytochrome P450scc): 41 ± 6 µM | kcat (cytochrome P450scc; substrate in 0.45% cyclodextrin): 1.3±0.1 mol/min/mol P450scc
Compound: C=C1/C(=C\C=C2/CCC[C@]3(C)[C@@H]([C@H](C)CCCC(C)C)CC[C@@H]23)C[C@@H](O)C[C@@H]1O [1α-hydroxycholecalciferol, (5Z,7E)-9,10-secocholesta-5,7,10(19)-triene-1α,3β-diol]

Compound: CC(O)C1(O)CCC2C3=CC=C4CC(O)CCC4(C)C3CCC21C (stereo not shown) [17,20 R(OH)27DHP]
Collagen CPM/Well (mean ± SEM) × 10^−5 FB (Human dermal fibroblasts): 173 ± 11 CPM/Well × 10^−5 FB | Hyaluronan CPM/Well (mean ± SEM) × 10^−5 FB [1]: 607 ± 127 CPM/Well × 10^−5 FB

Compound: CC(O)C1(O)CCC2C3=CC=C4CC(O)CCC4(C)C3CCC21C (stereo not shown) [17,20 S(OH)27DHP]
Collagen CPM/Well (mean ± SEM) × 10^−5 FB (Human dermal fibroblasts): 213 ± 17 CPM/Well × 10^−5 FB | Hyaluronan CPM/Well (mean ± SEM) × 10^−5 FB [1]: 227 ± 53 CPM/Well × 10^−5 FB

Compound: CC(O)C1(O)CCC2C3=CC=C4CC(O)CCC4(C)C3CCC21C (stereo not shown) [17,20(OH)27DHP]
TGF-b1 induced collagen protein production (Human dermal fibroblasts; [3H]-proline): inhibited TGF-b1 induced collagen protein production

Compound: C[C@]12CC[C@H]3C(=CC=C4C[C@@H](O)CC[C@@]43C)[C@@H]1CC[C@@H]2C(=O)O [17-COOH, (5Z,7E)-3β-hydroxy-androsta-5,7-diene-17β-carboxylic acid]
DNA synthesis (HaCaT keratinocytes; 72 hrs, 0.01-100 nM): DNA synthesis was inhibited at all concentrations

Compound: C=C1CCC(O)CC1=CC=C1CCCC2(C)C1CCC2(O)C(C)(O)CC(O)CC(C)C (stereo not drawn) [17α,20,23-trihydroxycholecalciferol, (5Z,7E)-9,10-secocholesta-5,7,10(19)-triene-3β,17α,20,23-tetrol]
keratinocyte proliferation compared with 1α,25-dihydroxycholecalciferol (HaCaT keratinocytes; 48 h): inhibit keratinocyte proliferation more potently than the control compound

Compound: C=C1CCC(O)CC1=CC=C1CCCC2(C)C1CCC2C(C)(O)CCC(O)C(C)C (stereo not drawn) [20,24(OH)2D3, (5Z,7E)-9,10-secocholesta-5,7,10(19)-triene-3β,20,24-triol]
colony formation in soft agar versus vehicle control [2]: greatly inhibited colony formation

Compound: C=C1CCC(O)CC1=CC=C1CCCC2(C)C1CCC2C(C)(O)CCCC(C)(C)O (stereo not drawn) [20,25(OH)2D3, (5Z,7E)-9,10-secocholesta-5,7,10(19)-triene-3β,20,25-triol]
colony formation in soft agar versus vehicle control [2]: greatly inhibited colony formation

Compound: C=C1CCC(O)CC1=CC=C1CCCC2(C)C1CCC2C(C)(O)CCCC(C)CO (stereo not drawn) [20,26(OH)2D3, (5Z,7E)-9,10-secocholesta-5,7,10(19)-triene-3β,20,26-triol]
colony formation in soft agar versus vehicle control [2]: greatly inhibited colony formation

Compound: CC(=O)[C@H]1CC[C@H]2C3=CC=C4C[C@@H](O)CC[C@]4(C)[C@H]3CC[C@]12C [compound 1, 3β-hydroxypregna-5,7-dien-20-one]
Collagen CPM/Well (mean ± SEM) × 10^−5 FB (Human dermal fibroblasts): 292 ± 31 CPM/Well × 10^−5 FB | Hyaluronan CPM/Well (mean ± SEM) × 10^−5 FB [1]: 230 ± 34 CPM/Well × 10^−5 FB

Compound: (5Z,7E)-9,10-secoandrosta-5,7,10(19)-trien-3β-ol [aD3]
colony formation on soft agar ([2]; SKMEL-188, dose dependent): suppress colony formation on soft agar
